These results are taken from ChEMBL document CHEMBL1240398, “Surveillance and correlation of antibiotic prescription and resistance of Gram-negative bacteria in Singaporean hospitals” (2010).

Common to all, as to type: functional
Test [1] concerns Escherichia coli. Kind of test: Antimicrobial activity against Escherichia coli clinical isolate assessed as resistance isolates by disk diffusion method. (In general: In agar diffusion tests the substance spreads into inoculated agar from a disc or well.)
Test [2] deals with Escherichia coli. Kind of test: Antimicrobial activity against Escherichia coli isolate obtained from patient's blood assessed as resistance isolates by disk diffusion method.
In test [3] the test system is Klebsiella pneumoniae. Kind of test: Antimicrobial activity against Klebsiella pneumoniae clinical isolate assessed as resistance isolates by disk diffusion method.
Test [4] relates to Klebsiella pneumoniae. Kind of test: Antimicrobial activity against Klebsiella pneumoniae isolate obtained from patient's blood assessed as resistance isolates by disk diffusion method.
In test [5] the test system is Acinetobacter sp. Kind of test: Antimicrobial activity against Acinetobacter sp. clinical isolate assessed as resistance isolates by disk diffusion method.
Test [6] relates to Acinetobacter sp. Kind of test: Antimicrobial activity against Acinetobacter sp. isolate obtained from patient's blood assessed as resistance isolates by disk diffusion method.
For test [7], the system named is Pseudomonas aeruginosa. Kind of test: Antimicrobial activity against Pseudomonas aeruginosa clinical isolate assessed as resistance isolates by disk diffusion method.
Test [8] has as its system Pseudomonas aeruginosa. Kind of test: Antimicrobial activity against Pseudomonas aeruginosa isolate obtained from patient's blood assessed as resistance isolates by disk diffusion method.

With `CO/N=C(\C(=O)N[C@@H]1C(=O)N2C(C(=O)O)=C(CSc3nc(=O)c(O)nn3C)CS[C@H]12)c1csc(N)n1` [CEFTRIAXONE], the Activity in the test with Escherichia coli [1] came out at 20%; in the test on Escherichia coli [2], 21.7%; with Klebsiella pneumoniae [3], 32.3%; with Klebsiella pneumoniae [4], 27.4%.
`O=C(O)c1cn(C2CC2)c2cc(N3CCNCC3)c(F)cc2c1=O` [CIPROFLOXACIN]: the Activity in the test with Escherichia coli [2] was determined as 31%; with Klebsiella pneumoniae [4], 24%.
As for `C[C@@H](O)[C@H]1C(=O)N2C(C(=O)O)=C(SCCNC=N)C[C@H]12` [IMIPENEM ANHYDROUS], the Activity with Acinetobacter sp. [5] is 46.2%; in the test with Acinetobacter sp. [6], 50%; with Pseudomonas aeruginosa [7] it was 7.5%; in the test on Pseudomonas aeruginosa [8] it was 12.8%.
